Tested on: hypertensive patients
Assay: Pharmacogenomic study: change of office systolic blood pressure (DSBP5_0) after 5 weeks of rostafuroxin vs placebo, by genotype
Type: in vivo, human
Method: A pharmacogenomic study was performed to ascertain the effect of genetic variations on an individual response to rostafuroxin. The sample for the pharmacogenomic study consisted of 342 individuals that were genotyped with the Human1M array from Illumina using Human1M Duo CHIP genotyping Bead Chip according to procedure described in [Ref. 10, 11, 12]. Among the individuals, 169 were administered the placebo treatment and 173 the active drug (rostafuroxin) in the first period (5 weeks) with demographics as in [Ref 13]. In particular, patients were randomized to one of the following oral doses of rostafuroxin: 0.05, 0.15, 0.5, 1.5, or 5 mg/day for 5 weeks. Each dose had to be compared to a placebo in a crossover design.
For the above sample of individuals a genetic association analysis, was performed to associate the phenotype of the tested individuals with the SNPs detected in the individuals. The selected phenotype of interest was the blood pressure response. The SNPs selected for detection were the 1111170 SNPs on autosomal chromosomes of the individual.
The genetic analysis was performed according to a quantitative genetic association design where the phenotype of interest is a quantitative variable (QT), and the variables (factors) affecting the distribution of the phenotype of interest are SNPs, therapy (placebo, rostafuroxin) and the SNP*therapy interaction.
In particular, the quantitative phenotype selected for the statistical analyses was the difference in mmHg between the office Systolic Blood Pressure (SBP) at the end of first treatment period (SBP_5) and the office Systolic Blood Pressure at baseline after one month of run-in (SBP_0) and is herein also identified as DSBP5_0. The selected QT phenotype and other factors affecting distribution of the phenotype of interest were then analyzed according to the following quantitative trait interaction test Phenotype=SNP+therapy+SNP*therapy as illustrated in further details below.
In particular, in Table 2 the descriptive statistics of DSBP5_0 for the entire sample and for the patients treated with placebo and rostafuroxin are listed. The rather modest basal level of SBP can be explained in view of the recruitment of patients with “mild” hypertension (SBP range 140-179 mmHg), required by the inclusion of a placebo arm.
Those SNPs were further selected to identify the genotypes with the largest response to rostafuroxin compared to placebo by performing a Statistical ANOVA analysis using STATA software in placebo and rostafuroxin with DSBP5_0 as dependent variable and the candidate significant SNPs as independent variables. In particular, to select the genotypes of the interactions between two SNPs with the largest response to rostafuroxin compared to placebo, the Applicants performed an ANOVA statistics in placebo and rostafuroxin with DSBP5_0 as dependent variable and the interaction s between SNPs as independent variables. The Applicants report an example of this procedure in FIG. 5: interaction between rs8899 and rs4678. The Applicants selected the interaction between the genotype AA of rs8899 and the genotype BB of rs4678 because it presents the greatest remarkable decrement in the therapy group and not in the placebo group.
In particular, to select the genotypes with the largest response to rostafuroxin compared to placebo, the Applicants performed an ANOVA statistics (oneway) in placebo and rostafuroxin with DSBP5_0 as dependent variable and the significant SNPs as independent variables.

[1] = GWS SNP ga001619 (PIGR) genotype 1
[2] = GWS SNP rs188334 (FAIM3) genotype 1
[3] = GWS SNP rs721207 (LOC131691) genotype 3
[4] = GWS SNP rs748140 (PIGR) genotype 1
[5] = GWS SNP rs1110446 (TRIM31) genotype 1
[6] = GWS SNP rs1110446 (TRIM31) genotype 2
[7] = GWS SNP rs1362126 (HLA-F) genotype 3
[8] = GWS SNP rs1901139 (LOC644192) genotype 3
[9] = GWS SNP rs1998394 (LOC728316) genotype 3
[10] = GWS SNP rs2275531 (PIGR) genotype 3
[11] = GWS SNP rs2345088 (KCNS3) genotype 1
[12] = GWS SNP rs2345088 (KCNS3) genotype 2
[13] = GWS SNP rs2427832 (LOC649458) genotype 2
[14] = GWS SNP rs2461911 (LOC389970) genotype 1
[15] = GWS SNP rs2517718 (HLA-A) genotype 1
[16] = GWS SNP rs2555500 (LOC389174) genotype 1
[17] = GWS SNP rs2743951 (RP3-377H14.5) genotype 3
[18] = GWS SNP rs3087816 (SLC30A7) genotype 2
[19] = GWS SNP rs3893464 (HCG9) genotype 1
[20] = GWS SNP rs4710592 (RCADH5) genotype 3
[21] = GWS SNP rs4998662 (FAM46A) genotype 2
[22] = GWS SNP rs5013093 (HLA-G) genotype 1
[23] = GWS SNP rs6457110 (HCG9) genotype 1
[24] = GWS SNP rs6718282 (KCNS3) genotype 2
[25] = GWS SNP rs7216331 (COX10) genotype 2
[26] = GWS SNP rs7521668 (DPH5) genotype 1
[27] = GWS SNP rs7521668 (DPH5) genotype 2
[28] = GWS SNP rs8179654 (LOC642727) genotype 3

For `C[C@]12CC[C@H](O)C[C@H]1CC[C@@H]1[C@@H]2CC[C@]2(C)[C@@](O)(c3ccoc3)CC[C@]12O` [rostafuroxin, 17β-(3-furyl)-5β-androstane-3β,14β,17α-triol], the “higher response in blood pressure drop, low doses vs high doses” value (0.05 to 0.50 mg/day vs 1.5 to 5 mg/day) was “+50%”, the “DELTA delta Therapy placebo” value [1] was 9.252 mmHg and the DSBP5_0 therapy [1] was −13.615 mmHg. The “DELTA delta Therapy placebo” value [2] was 8.146 mmHg, the DSBP5_0 therapy [2] was −11.82 mmHg and the “DELTA delta Therapy placebo” value [3] was 6.934 mmHg. For the same molecule, the DSBP5_0 therapy [3] was −11.58 mmHg, the “DELTA delta Therapy placebo” value [4] was 6.506 mmHg and the DSBP5_0 therapy [4] was −11.28 mmHg. For the same molecule, the “DELTA delta Therapy placebo” value [5] was 20.59 mmHg, the DSBP5_0 therapy [5] was −16.37 mmHg and the “DELTA delta Therapy placebo” value [6] was 3.54 mmHg. For the same molecule, the DSBP5_0 therapy [6] was −10.13 mmHg, the “DELTA delta Therapy placebo” value [7] was 4.93 mmHg and the DSBP5_0 therapy [7] was −10.29 mmHg. For the same molecule, the “DELTA delta Therapy placebo” value [8] was 10.52 mmHg, the DSBP5_0 therapy [8] was −12.11 mmHg and the “DELTA delta Therapy placebo” value [9] was 5.788 mmHg. The DSBP5_0 therapy [9] was −10.51 mmHg, the “DELTA delta Therapy placebo” value [10] was 7.817 mmHg and the DSBP5_0 therapy [10] was −12.18 mmHg. For the same molecule, the DSBP5_0 therapy (GWS SNP rs2326912 (TMEM200A) genotype 1) was −11.7 mmHg, the “DELTA delta Therapy placebo” value [11] was 33.93 mmHg and the DSBP5_0 therapy [11] was −30.5 mmHg. For the same molecule, the “DELTA delta Therapy placebo” value [12] was 3.512 mmHg, the DSBP5_0 therapy [12] was −10.69 mmHg and the “DELTA delta Therapy placebo” value [13] was 6.845 mmHg. The DSBP5_0 therapy [13] was −10.38 mmHg, the “DELTA delta Therapy placebo” value [14] was 22.82 mmHg and the DSBP5_0 therapy [14] was −20.6 mmHg. For the same molecule, the “DELTA delta Therapy placebo” value [15] was 6.212 mmHg, the DSBP5_0 therapy [15] was −11.83 mmHg and the “DELTA delta Therapy placebo” value [16] was 5.2 mmHg. For the same molecule, the DSBP5_0 therapy [16] was −10.52 mmHg, the “DELTA delta Therapy placebo” value [17] was 5.62 mmHg and the DSBP5_0 therapy [17] was −11.17 mmHg. For the same molecule, the “DELTA delta Therapy placebo” value [18] was 7.021 mmHg, the DSBP5_0 therapy [18] was −13.044 mmHg and the “DELTA delta Therapy placebo” value [19] was 9.016 mmHg. For the same molecule, the DSBP5_0 therapy [19] was −10.99 mmHg, the “DELTA delta Therapy placebo” value [20] was 20.075 mmHg and the DSBP5_0 therapy [20] was −23.825 mmHg. The “DELTA delta Therapy placebo” value [21] was 13.54 mmHg, the DSBP5_0 therapy [21] was −15.81 mmHg and the “DELTA delta Therapy placebo” value [22] was 22.09 mmHg. For the same molecule, the DSBP5_0 therapy [22] was −20.49 mmHg, the “DELTA delta Therapy placebo” value [23] was 5.862 mmHg and the DSBP5_0 therapy [23] was −10.35 mmHg. The DSBP5_0 therapy (GWS SNP rs6718282 (KCNS3) genotype 1) was −41.3 mmHg, the “DELTA delta Therapy placebo” value [24] was 13.825 mmHg and the DSBP5_0 therapy [24] was −12.625 mmHg. For the same molecule, the “DELTA delta Therapy placebo” value [25] was 13.91 mmHg, the DSBP5_0 therapy [25] was −15.81 mmHg and the “DELTA delta Therapy placebo” value [26] was 28.95 mmHg. The DSBP5_0 therapy [26] was −25 mmHg, the “DELTA delta Therapy placebo” value [27] was 7.021 mmHg and the DSBP5_0 therapy [27] was −13.044 mmHg. The “DELTA delta Therapy placebo” value [28] was 8.442 mmHg, the DSBP5_0 therapy [28] was −10.95 mmHg and the “DELTA delta Therapy placebo” value (GWS SNP rs9361863 (LOC728360) genotype 1) was 19.6 mmHg.

Reference: patent publication US9408854B2, “Methods and systems for pharmacogenomic treatment of cardiovascular conditions” (ROSTAQUO S.P.A., priority 2009, dated 2016)
